# Columns and labels:
# Test in all cases: ≥ marks a high value that may be exact or a test limit, other limits are often not marked, values filed in µg/mL are converted to µM
# [1] = system: Candida albicans ATCC 10231
# [2] = system: Staphylococcus aureus ATCC 25923
# [3] = system: Escherichia coli ATCC 25922
# [4] = system: Bacillus subtilis ATCC 6633
# [5] = system: Candida albicans ATCC 90028
# Staphylococcus aureus = system: Staphylococcus aureus
# Escherichia coli = system: Escherichia coli
# Candida albicans = system: Candida albicans
# Bacillus subtilis = system: Bacillus subtilis
# [6] = system: Klebsiella pneumoniae ATCC 700603
# [7] = system: Staphylococcus aureus ATCC 29213
# [8] = system: Pseudomonas aeruginosa ATCC 27853
# [9] = system: Staphylococcus epidermidis
smiles,measurement,setting,value
CC(C)C[C@H](NC(=O)[C@@H]1CCCN1C(=O)[C@H](CCCCN)NC(=O)[C@@H]1CCCN1C(=O)[C@H](Cc1ccc(O)cc1)NC(=O)[C@H](CCCCN)NC(=O)[C@H](Cc1c[nH]c2ccccc12)NC(=O)[C@H](CCCN=C(N)N)NC(=O)[C@@H](N)Cc1ccccc1)C(=O)N[C@@H](CCCCN)C(=O)N[C@@H](CCCN=C(N)N)C(=O)O [FRWKYPKPLKR],MIC,[1],> 65.8 µM
same,MIC,[2],> 65.8 µM
same,MIC,[3],> 65.8 µM
same,MIC,[4],≥ 65.8 µM
CSCC[C@H](NC(=O)[C@H](Cc1ccccc1)NC(=O)CN)C(=O)N[C@@H](CO)C(=O)N[C@H](C(=O)N[C@@H](C)C(=O)N[C@@H](CO)C(=O)N[C@@H](CC(N)=O)C(=O)N[C@H](C(=O)N[C@@H](CC(C)C)C(=O)N[C@H](C(=O)N[C@@H](CC(N)=O)C(=O)N[C@H](C(=O)N[C@@H](C)C(=O)NCC(=O)N[C@H](C(=O)N[C@H](C(=O)N[C@@H](CCSC)C(=O)N[C@@H](CC(=O)O)C(=O)N[C@@H](CCCCN)C(=O)N[C@@H](CC(C)C)C(=O)N[C@@H](CCCCN)C(=O)N[C@H]1CSSC[C@@H](C(=O)O)NC(=O)[C@H](C)NC(=O)CNC(=O)[C@H]([C@@H](C)O)NC(=O)[C@H](Cc2ccccc2)NC(=O)[C@H](CCCCN)NC1=O)C(C)C)[C@@H](C)O)C(C)C)[C@@H](C)O)C(C)C)[C@@H](C)O [GFMSTASNVLTNVAGTVMDKLKCKFTGAC],MIC,[4],≥ 100 µM
CC[C@H](C)[C@H](NC(=O)[C@@H](NC(=O)[C@H](CC(N)=O)NC(=O)[C@H](CC(C)C)NC(=O)[C@H](CC(C)C)NC(=O)CN)C(C)C)C(=O)N[C@@H](CCCCN)C(=O)N[C@@H](CC(=O)O)C(=O)N[C@H](C(=O)N[C@@H](C)C(=O)N[C@@H](CCC(N)=O)C(=O)N[C@@H](CC(N)=O)C(=O)N[C@@H](CC(C)C)C(=O)N[C@@H](Cc1ccccc1)C(=O)N[C@@H](C)C(=O)N[C@@H](C)C(=O)N[C@@H](C)C(=O)N[C@@H](CC(C)C)C(=O)N[C@@H](CCC(=O)O)C(=O)N[C@@H](CCCCN)C(=O)N[C@@H](CC(C)C)C(=O)N[C@@H](CCCCN)C(=O)N[C@H]1CSSC[C@@H](C(=O)N[C@@H](CC(N)=O)C(=O)O)NC(=O)[C@H](CCCCN)NC(=O)[C@H]([C@@H](C)O)NC(=O)[C@H](C(C)C)NC(=O)[C@H](CCCCN)NC1=O)[C@@H](C)O [GLLNVIKDTAQNLFAAALEKLKCKVTKCN],MIC,[2],> 160 µM
same,MIC,[3],80 µM
same,MIC,[5],≥ 160 µM
CC[C@H](C)[C@H](NC(=O)CNC(=O)[C@H](CO)NC(=O)[C@H](CC(C)C)NC(=O)[C@H](CC(C)C)NC(=O)CN)C(=O)N[C@@H](CC(C)C)C(=O)NCC(=O)N[C@@H](C)C(=O)NCC(=O)N[C@@H](CCCCN)C(=O)N[C@@H](Cc1cnc[nH]1)C(=O)N[C@H](C(=O)N[C@H](C(=O)N[C@H]1CSSC[C@@H](C(=O)O)NC(=O)[C@H](CC(C)C)NC(=O)CNC(=O)[C@H](CO)NC(=O)[C@H](CC(C)C)NC(=O)CNC1=O)[C@@H](C)CC)[C@@H](C)CC [GLLSGILGAGKHIICGLSGLC],MIC,Staphylococcus aureus,> 50.4 µM
same,MIC,Escherichia coli,> 50.4 µM
same,MIC,Candida albicans,0.555 µM
same,MIC,Bacillus subtilis,≥ 50.4 µM
CC[C@H](C)[C@H](NC(=O)CNC(=O)[C@H](CO)NC(=O)[C@H](CC(C)C)NC(=O)[C@H](CC(C)C)NC(=O)CN)C(=O)N[C@@H](CC(C)C)C(=O)NCC(=O)N[C@@H](C)C(=O)NCC(=O)N[C@@H](CCCCN)C(=O)N[C@@H](Cc1cnc[nH]1)C(=O)N[C@H](C(=O)N[C@H](C(=O)N[C@@H](CS)C(=O)NCC(=O)N[C@@H](CC(C)C)C(=O)N[C@@H](CO)C(=O)NCC(=O)N1CCC[C@H]1C(=O)N[C@H]1CSSC[C@@H](C(=O)O)NC(=O)[C@H](CCCCN)NC(=O)[C@H](C)NC(=O)[C@H](CC(C)C)NC(=O)[C@H](Cc2cnc[nH]2)NC(=O)[C@H](Cc2ccc(O)cc2)NC(=O)[C@H](CCC(=O)O)NC(=O)[C@H](C(C)C)NC(=O)[C@H](CC(=O)O)NC(=O)[C@H](CO)NC(=O)[C@H](CO)NC(=O)[C@H](CCCCN)NC(=O)[C@H](CCCN=C(N)N)NC(=O)[C@H](CC(N)=O)NC(=O)[C@H](CC(C)C)NC(=O)[C@H](CO)NC(=O)[C@H](CCC(N)=O)NC1=O)C(C)C)[C@@H](C)CC [GLLSGILGAGKHIVCGLSGPCQSLNRKSSDVEYHLAKC],MIC,Staphylococcus aureus,0.797 µM
same,MIC,Escherichia coli,1.6 µM
same,MIC,Candida albicans,0.797 µM
same,MIC,Bacillus subtilis,3.19 µM
CC[C@H](C)[C@H](NC(=O)[C@@H](NC(=O)[C@@H]1CCCN1C(=O)[C@@H](NC(=O)[C@@H]1CCCN1C(=O)[C@H](CCCCN)NC(=O)[C@H](CCCCN)NC(=O)[C@H](CO)NC(=O)CN)C(C)C)[C@@H](C)CC)C(=O)N[C@@H](Cc1ccc(O)cc1)C(=O)N[C@H]1CSSC[C@@H](C(=O)N[C@@H](CCC(N)=O)C(=O)N[C@@H](CCCN=C(N)N)C(=O)N[C@@H](CCSC)C(=O)O)NC(=O)[C@H](CCCCN)NC(=O)[C@H](C)NC(=O)[C@H]([C@@H](C)O)NC(=O)[C@H](CCCN=C(N)N)NC(=O)[C@H](CCCN=C(N)N)NC(=O)[C@H](CC(N)=O)NC1=O [GSKKPVPIIYCNRRTAKCQRM],MIC,[6],6.53 µM
same,MIC,[3],6.53 µM
CC[C@H](C)[C@H](N)C(=O)N[C@@H](CC(=O)O)C(=O)N[C@@H](Cc1c[nH]c2ccccc12)C(=O)N[C@@H](CCCCN)C(=O)N[C@@H](CCCCN)C(=O)N[C@H](C(=O)N[C@@H](Cc1ccccc1)C(=O)N[C@@H](CCC(=O)O)C(=O)N[C@@H](CCCCN)C(=O)N[C@H](C(=O)N[C@@H](CCCCN)C(=O)N[C@@H](CC(=O)O)C(=O)N[C@@H](CC(C)C)C(=O)N[C@H](C(N)=O)C(C)C)C(C)C)[C@@H](C)CC [IDWKKIFEKVKDLV],MIC,Escherichia coli,47.5 µM
same,MIC,Bacillus subtilis,17.5 µM
CC[C@H](C)[C@H](NC(=O)[C@H](CCCN=C(N)N)NC(=O)[C@H](C)NC(=O)[C@@H](NC(=O)[C@@H](NC(=O)[C@H](CCCN=C(N)N)NC(=O)[C@@H](N)CCCCN)[C@@H](C)CC)C(C)C)C(=O)N[C@@H](CCCCN)C(=O)N[C@@H](C)C(=O)N[C@@H](C)C(=O)N[C@@H](CC(C)C)C(=O)N[C@@H](CCCN=C(N)N)C(=O)O [KRIVARIKAALR],MIC,[7],5 µM
same,MIC,[3],2.5 µM
same,MIC,[5],10 µM
same,MIC,[8],2.5 µM
CC[C@H](C)[C@H](NC(=O)[C@H](CCCN=C(N)N)NC(=O)[C@H](CCCCN)NC(=O)[C@@H](NC(=O)[C@@H](NC(=O)[C@H](CCCN=C(N)N)NC(=O)[C@@H](N)CCCCN)[C@@H](C)CC)C(C)C)C(=O)N[C@@H](CCCCN)C(=O)N[C@@H](C)C(=O)N[C@@H](Cc1ccccc1)C(=O)N[C@@H](CC(C)C)C(=O)N[C@@H](CCCN=C(N)N)C(=O)O [KRIVKRIKAFLR],MIC,[7],1.25 µM
same,MIC,[3],1.25 µM
same,MIC,[5],1.25 µM
same,MIC,[8],1.25 µM
CC[C@H](C)[C@H](NC(=O)[C@H](CCCN=C(N)N)NC(=O)[C@H](CCC(N)=O)NC(=O)[C@@H](NC(=O)[C@@H](NC(=O)[C@H](CCCN=C(N)N)NC(=O)[C@@H](N)CCCCN)[C@@H](C)CC)C(C)C)C(=O)N[C@@H](C)C(=O)N[C@@H](CC(=O)O)C(=O)N[C@@H](Cc1ccccc1)C(=O)N[C@@H](CC(C)C)C(=O)N[C@@H](CCCN=C(N)N)C(=O)O [KRIVQRIADFLR],MIC,[7],40 µM
same,MIC,[3],40 µM
same,MIC,[5],≥ 40 µM
same,MIC,[8],40 µM
CC[C@H](C)[C@H](NC(=O)[C@H](CC(C)C)NC(=O)[C@H](C)NC(=O)[C@@H]1CCCN1C(=O)[C@H](CC(C)C)NC(=O)[C@@H](N)CC(C)C)C(=O)N[C@@H](CO)C(=O)N[C@@H](Cc1c[nH]c2ccccc12)C(=O)N[C@H](C(=O)N[C@@H](CCCCN)C(=O)N[C@@H](CCCN=C(N)N)C(=O)N[C@@H](CCCCN)C(=O)N[C@@H](CCCN=C(N)N)C(=O)N[C@@H](CCC(N)=O)C(=O)N[C@@H](CCC(N)=O)C(N)=O)[C@@H](C)CC [LLPALISWIKRKRQQ],MIC,Staphylococcus aureus,0.595 µM
same,MIC,Escherichia coli,38.3 µM
same,MIC,Bacillus subtilis,1.19 µM
CC[C@H](C)[C@H](NC(=O)[C@H](CO)NC(=O)[C@H](C)NC(=O)[C@@H](NC(=O)[C@H](CCCCN)NC(=O)[C@H](CCCCN)NC(=O)[C@H](Cc1c[nH]c2ccccc12)NC(=O)[C@@H](NC(=O)[C@@H](N)CC(N)=O)[C@@H](C)CC)[C@@H](C)CC)C(=O)N[C@@H](C)C(=O)N[C@@H](CCCCN)C(=O)N[C@@H](CCC(=O)O)C(=O)N[C@H](C(=O)N[C@@H](CC(C)C)C(=O)N[C@@H](CCCCN)C(=O)N[C@@H](C)C(=O)N[C@@H](CC(C)C)C(N)=O)C(C)C [NIWKKIASIAKEVLKAL],MIC,Escherichia coli,6.25 µM
same,MIC,Bacillus subtilis,10 µM
CC[C@H](C)[C@H](NC(=O)[C@H](CC(=O)O)NC(=O)[C@@H](NC(=O)[C@H](CCCCN)NC(=O)[C@H](Cc1ccccc1)NC(=O)[C@@H]1CCCN1)[C@@H](C)CC)C(=O)N[C@@H](Cc1cnc[nH]1)C(=O)N[C@@H](CC(C)C)C(=O)NCC(=O)NCC(=O)N[C@@H](Cc1ccc(O)cc1)C(N)=O [PFKIDIHLGGY],MIC,[9],23.8 µM
CC(C)[C@H](NC(=O)[C@H](CCCCN)NC(=O)[C@@H](NC(=O)[C@H](CCC(N)=O)NC(=O)[C@H](CCCCN)NC(=O)[C@H](Cc1c[nH]c2ccccc12)NC(=O)[C@@H](N)CCCN=C(N)N)C(C)C)C(=O)N[C@@H](CCCCN)C(=O)N[C@@H](CCCN=C(N)N)C(=O)O [RWKQVKVKR],MIC,[1],30.5 µM
same,MIC,[2],> 81.5 µM
same,MIC,[3],61.1 µM
same,MIC,[4],≥ 61.1 µM

# Reference: DBAASP
